Data reported in patent publication US9469650B2, “Melampomagnolide B derivatives” (BOARD OF TRUSTEES OF THE UNIVERSITY OF ARKANSAS, priority 2013, dated 2016).

Key:
[1] = tested on: HCT-15; assay: panel of 60 human tumor cell lines, growth inhibition (Colon Cancer); settings: HCT-15
[2] = tested on: MCF7; assay: panel of 60 human tumor cell lines, growth inhibition (Breast Cancer); settings: MCF7
[3] = tested on: M14; assay: panel of 60 human tumor cell lines, growth inhibition (Melanoma); settings: M14
[4] = tested on: OVCAR-8; assay: panel of 60 human tumor cell lines, growth inhibition (Ovarian Cancer); settings: OVCAR-8
[5] = tested on: SK-MEL-5; assay: panel of 60 human tumor cell lines, growth inhibition (Melanoma); settings: 8K-MEL-5
[6] = tested on: NCI-H460; assay: panel of 60 human tumor cell lines, growth inhibition (Non-Small Cell Lung Cancer); settings: NCI-H460
[7] = tested on: NCI-H226; assay: as above; settings: NCI-H226
[8] = tested on: BT-549; assay: panel of 60 human tumor cell lines, growth inhibition (Breast Cancer)
[9] = tested on: IGROV1; assay: panel of 60 human tumor cell lines, growth inhibition (Ovarian Cancer); settings: IGROVI
[10] = tested on: ACHN; assay: panel of 60 human tumor cell lines, growth inhibition (Renal Cancer)
[11] = 81-549, Log10 Concentration −4.0
[12] = 81-549, Log10 Concentration −5.0
[13] = 81-549, Log10 Concentration −6.0
[14] = 81-549, Log10 Concentration −7.0
[15] = 81-549, Log10 Concentration −8.0

C=C1C(=O)O[C@H]2[C@H]1CC/C(COC(=O)N1CCN(C)CC1)=C\CC[C@@]1(C)O[C@@H]21 [JVM 2-44]
Percent Growth ([1]; Log10 Concentration −5.0): 13%
Mean Optical Densities ([1]; Log10 Concentration −6.0): 2.210
Percent Growth ([1]; Log10 Concentration −6.0): 84%
Mean Optical Densities ([1]; Log10 Concentration −7.0): 2.370
Percent Growth ([1]; Log10 Concentration −7.0): 92%
Mean Optical Densities ([1]; Log10 Concentration −8.0): 2.435
Percent Growth ([1]; Log10 Concentration −8.0): 94%
GI50 [2]: 3.14 µM
TGI [2]: 1.44E−5
Mean Optical Densities ([2]; Log10 Concentration −4.0): 0.116
Percent Growth ([2]; Log10 Concentration −4.0): −68%
Mean Optical Densities ([2]; Log10 Concentration −5.0): 0.561
Percent Growth ([2]; Log10 Concentration −5.0): 13%
Mean Optical Densities ([2]; Log10 Concentration −6.0): 1.725
Percent Growth ([2]; Log10 Concentration −6.0): 87%
Mean Optical Densities ([2]; Log10 Concentration −7.0): 1.666
Percent Growth ([2]; Log10 Concentration −7.0): 83%
Mean Optical Densities ([2]; Log10 Concentration −8.0): 1.767
Percent Growth ([2]; Log10 Concentration −8.0): 89%
GI50 [3]: 8.89 µM
TGI [3]: 2.58E−5
Mean Optical Densities ([3]; Log10 Concentration −4.0): 0.178
Percent Growth ([3]; Log10 Concentration −4.0): −68%
Mean Optical Densities ([3]; Log10 Concentration −5.0): 1.229
Percent Growth ([3]; Log10 Concentration −5.0): 48%
Mean Optical Densities ([3]; Log10 Concentration −6.0): 1.877
Percent Growth ([3]; Log10 Concentration −6.0): 94%
Mean Optical Densities ([3]; Log10 Concentration −7.0): 1.848
Percent Growth ([3]; Log10 Concentration −7.0): 91%
Mean Optical Densities ([3]; Log10 Concentration −8.0): 1.953
Percent Growth ([3]; Log10 Concentration −8.0): 99%
GI50 [4]: 11.1 µM
TGI [4]: 3.06E−5
Mean Optical Densities ([4]; Log10 Concentration −4.0): 0.184
Percent Growth ([4]; Log10 Concentration −4.0): −61%
Mean Optical Densities ([4]; Log10 Concentration −5.0): 1.385
Percent Growth ([4]; Log10 Concentration −5.0): 59%
Mean Optical Densities ([4]; Log10 Concentration −6.0): 1.997
Percent Growth ([4]; Log10 Concentration −6.0): 98%
Mean Optical Densities ([4]; Log10 Concentration −7.0): 2.055
Percent Growth ([4]; Log10 Concentration −7.0): 102%
Mean Optical Densities ([4]; Log10 Concentration −8.0): 2.052
Percent Growth ([4]; Log10 Concentration −8.0): 101%
GI50 [5]: 16.1 µM
TGI [5]: 3.06E−5
Mean Optical Densities ([5]; Log10 Concentration −4.0): 0.067
Percent Growth ([5]; Log10 Concentration −4.0): −91%
Mean Optical Densities ([5]; Log10 Concentration −5.0): 2.878
Percent Growth ([5]; Log10 Concentration −5.0): 87%
Mean Optical Densities ([5]; Log10 Concentration −6.0): 3.118
Percent Growth ([5]; Log10 Concentration −6.0): 97%
Mean Optical Densities ([5]; Log10 Concentration −7.0): 3.182
Percent Growth ([5]; Log10 Concentration −7.0): 100%
Mean Optical Densities ([5]; Log10 Concentration −8.0): 3.116
Percent Growth ([5]; Log10 Concentration −8.0): 97%
GI50 [6]: 20.3 µM
TGI [6]: 5.67E−5
Mean Optical Densities ([6]; Log10 Concentration −4.0): 0.202
Percent Growth ([6]; Log10 Concentration −4.0): −28%
Mean Optical Densities ([6]; Log10 Concentration −5.0): 2.401
Percent Growth ([6]; Log10 Concentration −5.0): 84%
Mean Optical Densities ([6]; Log10 Concentration −6.0): 2.741
Percent Growth ([6]; Log10 Concentration −6.0): 98%
Mean Optical Densities ([6]; Log10 Concentration −7.0): 2.825
Percent Growth ([6]; Log10 Concentration −7.0): 101%
Mean Optical Densities ([6]; Log10 Concentration −8.0): 2.830
Percent Growth ([6]; Log10 Concentration −8.0): 101%
GI50 [7]: 12.4 µM
TGI [7]: 3.73E−5
Mean Optical Densities ([7]; Log10 Concentration −4.0): 0.601
Percent Growth ([7]; Log10 Concentration −4.0): −45%
Mean Optical Densities ([7]; Log10 Concentration −5.0): 2.002
Percent Growth ([7]; Log10 Concentration −5.0): 60%
Mean Optical Densities ([7]; Log10 Concentration −6.0): 2.540
Percent Growth ([7]; Log10 Concentration −6.0): 95%
Mean Optical Densities ([7]; Log10 Concentration −7.0): 2.533
Percent Growth ([7]; Log10 Concentration −7.0): 94%
Mean Optical Densities ([7]; Log10 Concentration −8.0): 2.561
Percent Growth ([7]; Log10 Concentration −8.0): 96%
TGI ([8]; 81-549): 1.81E−5
Mean Optical Densities [8, 11]: 0.180
Percent Growth [8, 11]: −86%
Mean Optical Densities [8, 12]: 1.522
Percent Growth [8, 12]: 30%
Mean Optical Densities [8, 13]: 1.985
Percent Growth [8, 13]: 84%
Mean Optical Densities [8, 14]: 1.951
Percent Growth [8, 14]: 80%
Mean Optical Densities [8, 15]: 2.028
Percent Growth [8, 15]: 89%
GI50 [9]: 11.1 µM
TGI [9]: 2.99E−5
Mean Optical Densities ([9]; Log10 Concentration −4.0): 0.249
Percent Growth ([9]; Log10 Concentration −4.0): −65%
Mean Optical Densities ([9]; Log10 Concentration −5.0): 1.363
Percent Growth ([9]; Log10 Concentration −5.0): 59%
Mean Optical Densities ([9]; Log10 Concentration −6.0): 1.902
Percent Growth ([9]; Log10 Concentration −6.0): 107%
Mean Optical Densities ([9]; Log10 Concentration −7.0): 1.888
Percent Growth ([9]; Log10 Concentration −7.0): 106%
Mean Optical Densities ([9]; Log10 Concentration −8.0): 1.866
Percent Growth ([9]; Log10 Concentration −8.0): 104%
GI50 [10]: 3.83 µM
TGI [10]: 1.59E−5
Mean Optical Densities ([10]; Log10 Concentration −4.0): 0.112
Percent Growth ([10]; Log10 Concentration −4.0): −77%
Mean Optical Densities ([10]; Log10 Concentration −5.0): 0.773
Percent Growth ([10]; Log10 Concentration −5.0): 19%
Mean Optical Densities ([10]; Log10 Concentration −6.0): 1.883
Percent Growth ([10]; Log10 Concentration −6.0): 93%
Mean Optical Densities ([10]; Log10 Concentration −7.0): 1.961
Percent Growth ([10]; Log10 Concentration −7.0): 9B
Mean Optical Densities ([10]; Log10 Concentration −8.0): 2.010
Percent Growth ([10]; Log10 Concentration −8.0): 101%
